# Laboratory results taken from ChEMBL document CHEMBL5463729, “Data for DCP probe BAY 1753011” (2023).
# Key:
# [1] = target: Tyrosine-protein kinase Fes/Fps (Homo sapiens) (UniProt P07332); experiment: Inhibition of Fes(h) at 10.0 µM in the Eurofins Kinase panel; settings: Compound concentration 10.0 uM
# [2] = target: Hepatocyte growth factor receptor (Homo sapiens) (UniProt P08581); experiment: Inhibition of Met(h) at 10.0 µM in the Eurofins Kinase panel; settings: Compound concentration 10.0 uM
# Hepatocyte growth factor receptor (Homo sapiens), sequence (P08581 whole entry): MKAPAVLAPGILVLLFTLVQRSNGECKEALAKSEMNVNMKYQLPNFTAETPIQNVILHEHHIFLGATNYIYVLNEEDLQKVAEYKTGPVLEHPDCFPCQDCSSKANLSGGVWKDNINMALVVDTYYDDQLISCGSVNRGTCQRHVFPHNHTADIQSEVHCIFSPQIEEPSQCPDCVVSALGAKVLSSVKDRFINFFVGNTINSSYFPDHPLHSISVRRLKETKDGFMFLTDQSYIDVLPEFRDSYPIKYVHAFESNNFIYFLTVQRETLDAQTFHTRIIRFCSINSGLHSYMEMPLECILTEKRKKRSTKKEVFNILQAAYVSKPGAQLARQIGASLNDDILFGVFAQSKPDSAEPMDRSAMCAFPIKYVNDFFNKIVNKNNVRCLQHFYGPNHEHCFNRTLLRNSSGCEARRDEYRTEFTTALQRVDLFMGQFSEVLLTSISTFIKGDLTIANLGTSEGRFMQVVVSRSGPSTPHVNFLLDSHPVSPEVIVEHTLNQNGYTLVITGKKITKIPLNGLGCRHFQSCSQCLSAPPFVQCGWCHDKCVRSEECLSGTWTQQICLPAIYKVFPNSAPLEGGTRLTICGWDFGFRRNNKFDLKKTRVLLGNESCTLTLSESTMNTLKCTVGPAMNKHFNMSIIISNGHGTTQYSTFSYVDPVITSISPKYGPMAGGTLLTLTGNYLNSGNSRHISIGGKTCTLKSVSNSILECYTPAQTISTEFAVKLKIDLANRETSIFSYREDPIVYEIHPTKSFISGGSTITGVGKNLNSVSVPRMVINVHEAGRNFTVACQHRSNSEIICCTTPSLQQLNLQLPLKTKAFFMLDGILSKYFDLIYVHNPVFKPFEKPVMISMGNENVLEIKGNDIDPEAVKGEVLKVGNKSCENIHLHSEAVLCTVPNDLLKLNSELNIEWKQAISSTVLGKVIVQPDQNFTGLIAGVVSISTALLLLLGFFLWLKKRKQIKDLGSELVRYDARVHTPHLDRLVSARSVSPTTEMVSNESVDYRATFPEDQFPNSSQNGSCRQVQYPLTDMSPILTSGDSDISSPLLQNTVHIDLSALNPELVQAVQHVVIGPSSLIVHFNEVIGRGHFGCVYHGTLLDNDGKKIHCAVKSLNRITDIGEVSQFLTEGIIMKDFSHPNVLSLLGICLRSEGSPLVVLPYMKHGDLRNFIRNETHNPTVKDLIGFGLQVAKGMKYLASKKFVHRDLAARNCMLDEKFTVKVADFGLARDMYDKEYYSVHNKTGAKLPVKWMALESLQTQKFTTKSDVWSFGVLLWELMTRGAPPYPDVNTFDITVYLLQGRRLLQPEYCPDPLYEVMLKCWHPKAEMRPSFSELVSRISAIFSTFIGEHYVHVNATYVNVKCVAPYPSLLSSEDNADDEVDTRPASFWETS
# [3] = target: 5-hydroxytryptamine receptor 1D (Homo sapiens) (UniProt P28221); settings: Compound concentration 10.0 uM
# 5-hydroxytryptamine receptor 1D (Homo sapiens), sequence (P28221 whole entry): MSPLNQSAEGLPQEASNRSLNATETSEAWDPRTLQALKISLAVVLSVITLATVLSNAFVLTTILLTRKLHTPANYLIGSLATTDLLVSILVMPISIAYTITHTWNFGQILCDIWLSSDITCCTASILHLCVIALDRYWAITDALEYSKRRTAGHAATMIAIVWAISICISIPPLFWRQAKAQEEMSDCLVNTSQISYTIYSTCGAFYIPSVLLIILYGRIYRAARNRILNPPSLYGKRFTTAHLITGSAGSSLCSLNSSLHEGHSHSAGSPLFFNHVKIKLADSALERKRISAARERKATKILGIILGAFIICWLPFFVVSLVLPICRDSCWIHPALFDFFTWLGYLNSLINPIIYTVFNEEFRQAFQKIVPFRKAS
# [4] = target: Histamine H2 receptor (Homo sapiens) (UniProt P25021); settings: Compound concentration 10.0 uM
# Histamine H2 receptor (Homo sapiens), sequence (P25021 whole entry): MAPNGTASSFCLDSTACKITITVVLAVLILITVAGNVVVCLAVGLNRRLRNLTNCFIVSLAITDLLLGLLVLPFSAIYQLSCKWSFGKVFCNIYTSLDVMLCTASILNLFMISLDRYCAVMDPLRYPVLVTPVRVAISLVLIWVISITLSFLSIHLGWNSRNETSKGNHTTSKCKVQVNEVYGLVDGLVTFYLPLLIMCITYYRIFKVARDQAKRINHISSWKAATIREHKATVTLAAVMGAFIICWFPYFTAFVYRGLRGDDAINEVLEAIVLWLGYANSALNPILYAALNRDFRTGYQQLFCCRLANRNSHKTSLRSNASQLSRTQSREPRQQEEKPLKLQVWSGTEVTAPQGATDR
# [5] = target: T1, GABA-A receptor; anion channel (Rattus norvegicus) (UniProt O09028+P15431+P18506+P18508+P19969+P20236+P23574+P23576+P28471+P28473+P30191+P62813+P63079+P63138+Q91ZM7+Q9ES14); settings: Compound concentration 10.0 uM
# [6] = target: 5-hydroxytryptamine receptor 2A (Homo sapiens) (UniProt P28223); settings: Compound concentration 10.0 uM
# 5-hydroxytryptamine receptor 2A (Homo sapiens), sequence (P28223 whole entry): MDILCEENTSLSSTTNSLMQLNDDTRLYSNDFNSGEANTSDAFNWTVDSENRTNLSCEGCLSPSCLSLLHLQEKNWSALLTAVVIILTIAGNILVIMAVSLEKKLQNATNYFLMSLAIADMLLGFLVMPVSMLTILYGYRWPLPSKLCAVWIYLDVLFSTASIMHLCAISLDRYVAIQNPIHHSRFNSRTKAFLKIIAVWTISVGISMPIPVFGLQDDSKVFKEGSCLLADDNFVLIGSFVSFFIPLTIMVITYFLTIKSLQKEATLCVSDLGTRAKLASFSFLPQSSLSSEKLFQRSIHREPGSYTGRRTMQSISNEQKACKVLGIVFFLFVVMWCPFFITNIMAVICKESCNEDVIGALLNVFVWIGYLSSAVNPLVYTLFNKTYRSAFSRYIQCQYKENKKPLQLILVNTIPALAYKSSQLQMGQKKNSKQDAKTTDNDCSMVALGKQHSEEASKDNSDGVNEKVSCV
# [7] = target: Motilin receptor (Homo sapiens) (UniProt O43193); settings: Compound concentration 10.0 uM
# Motilin receptor (Homo sapiens), sequence (O43193 whole entry): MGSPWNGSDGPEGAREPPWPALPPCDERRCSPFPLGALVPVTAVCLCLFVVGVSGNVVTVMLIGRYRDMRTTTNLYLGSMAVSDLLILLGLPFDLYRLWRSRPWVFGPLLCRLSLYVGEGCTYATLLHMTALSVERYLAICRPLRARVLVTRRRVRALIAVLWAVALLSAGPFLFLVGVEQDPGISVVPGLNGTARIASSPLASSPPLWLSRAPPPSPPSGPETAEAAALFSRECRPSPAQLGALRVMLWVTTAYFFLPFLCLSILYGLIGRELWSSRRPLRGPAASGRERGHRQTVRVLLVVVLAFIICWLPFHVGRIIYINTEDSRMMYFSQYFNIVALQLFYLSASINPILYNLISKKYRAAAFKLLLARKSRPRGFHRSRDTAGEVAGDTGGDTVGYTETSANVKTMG
# [8] = target: T1, GABA-A receptor; anion channel (Rattus norvegicus); experiment: Inhibition of GABAA, Muscimol, Central at 10 µM in the Eurofins-Panlabs radioligand binding assay (Eurofins_assay_226500); type: protein-complex assay; settings: Compound concentration 10.0 uM
# [9] = target: Glutamate receptor ionotropic, kainate (Rattus norvegicus) (UniProt P22756+Q01812+P42260+P42264+Q63273); experiment: Inhibition of Glutamate, Kainate at 10 µM in the Eurofins-Panlabs radioligand binding assay (Eurofins_assay_232700); settings: Compound concentration 10.0 uM
# Rattus norvegicus [10] = species on record: Rattus norvegicus; experiment: Inhibition of Glutamate, NMDA, Phencyclidine at 10 µM in the Eurofins-Panlabs radioligand binding assay (Eurofins_assay_233000); type: protein-complex assay; settings: Compound concentration 10.0 uM
# Rattus norvegicus [11] = species on record: Rattus norvegicus; experiment: Inhibition of Imidazoline I2, Central at 10 µM in the Eurofins-Panlabs radioligand binding assay (Eurofins_assay_241000); parameters: ligand concentration 2 nM; settings: Compound concentration 10.0 uM
# [12] = target: Neuropeptide Y receptor type 1 (Homo sapiens) (UniProt P25929); experiment: Inhibition of Neuropeptide Y Y1 at 10 µM in the Eurofins-Panlabs radioligand binding assay (Eurofins_assay_257010); settings: Compound concentration 10.0 uM
# [13] = target: 3-hydroxy-3-methylglutaryl-coenzyme A reductase (Homo sapiens) (UniProt P04035); experiment: Inhibition of HMG-CoA Reductase at compound concentration of 10.0 uM in the Eurofins-Panlabs enzyme assay (Eurofins_assay_124010); parameters: substrate with concentration; settings: Compound concentration 10.0 uM
# 3-hydroxy-3-methylglutaryl-coenzyme A reductase (Homo sapiens), sequence (P04035 whole entry): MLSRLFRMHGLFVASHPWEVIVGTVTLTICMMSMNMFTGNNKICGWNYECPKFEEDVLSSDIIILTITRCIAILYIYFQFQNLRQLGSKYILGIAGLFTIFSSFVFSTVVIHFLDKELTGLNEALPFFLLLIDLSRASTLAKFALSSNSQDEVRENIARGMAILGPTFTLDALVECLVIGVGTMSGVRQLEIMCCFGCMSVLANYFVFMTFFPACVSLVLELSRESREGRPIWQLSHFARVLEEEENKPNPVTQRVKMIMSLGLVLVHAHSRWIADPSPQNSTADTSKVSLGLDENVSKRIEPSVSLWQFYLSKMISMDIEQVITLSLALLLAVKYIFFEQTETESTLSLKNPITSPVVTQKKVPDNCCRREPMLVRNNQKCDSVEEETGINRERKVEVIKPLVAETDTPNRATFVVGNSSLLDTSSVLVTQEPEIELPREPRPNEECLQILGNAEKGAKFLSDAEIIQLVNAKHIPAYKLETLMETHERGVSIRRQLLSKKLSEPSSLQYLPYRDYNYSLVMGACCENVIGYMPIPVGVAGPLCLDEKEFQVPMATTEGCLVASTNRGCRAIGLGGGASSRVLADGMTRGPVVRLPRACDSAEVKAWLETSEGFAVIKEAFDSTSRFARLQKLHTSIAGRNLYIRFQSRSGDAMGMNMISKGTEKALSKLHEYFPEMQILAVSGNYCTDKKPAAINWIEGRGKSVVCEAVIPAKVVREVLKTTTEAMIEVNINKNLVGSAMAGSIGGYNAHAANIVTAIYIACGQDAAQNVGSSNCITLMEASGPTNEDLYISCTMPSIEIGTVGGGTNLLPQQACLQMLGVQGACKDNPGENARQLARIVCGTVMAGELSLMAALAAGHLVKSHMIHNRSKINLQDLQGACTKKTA
# [14] = target: Interstitial collagenase (Homo sapiens) (UniProt P03956); experiment: Inhibition of Peptidase, Matrix Metalloproteinase-1 (MMP-1) at 10 µM in the Eurofins-Panlabs enzyme assay (Eurofins_assay_114110); settings: Compound concentration 10.0 uM
# [15] = target: Phosphodiesterase 3 (Homo sapiens) (UniProt Q14432+Q13370); experiment: Inhibition of Phosphodiesterase PDE3 at compound concentration of 10.0 uM in the Eurofins-Panlabs enzyme assay (Eurofins_assay_152000); type: protein assay; parameters: substrate with concentration 1.01 uM [3H] cAMP + cAMP, incubation time 20 min, incubation temperature 25 C; settings: Compound concentration 10.0 uM
# Homo sapiens [16] = species on record: Homo sapiens; experiment: Inhibition of Phosphodiesterase PDE4 at compound concentration of 10.0 uM in the Eurofins-Panlabs enzyme assay (Eurofins_assay_154000); type: protein assay; parameters: substrate with concentration 1.01 uM [3 H]cAMP + cAMP, incubation time 20 min, incubation temperature 25 C; settings: Compound concentration 10.0 uM
# [17] = target: 5-hydroxytryptamine receptor 6 (Homo sapiens) (UniProt P50406); experiment: Inhibition of Serotonin (5-Hydroxytryptamine) 5-HT6 at 10 µM in the Eurofins-Panlabs radioligand binding assay (Eurofins_assay_272200); settings: Compound concentration 10.0 uM
# Homo sapiens [18] = species on record: Homo sapiens; experiment: Inhibition of Tumor Necrosis Factor (TNF), Non-Selective at 10 µM in the Eurofins-Panlabs radioligand binding assay (Eurofins_assay_286510); settings: Compound concentration 10.0 uM
# Vasopressin V1a receptor = Vasopressin V1a receptor (Homo sapiens, UniProt P37288); experiment: Inhibition of Vasopressin V1A at compound concentration of 10.0 uM in the Eurofins-Panlabs radioligand binding assay (Eurofins_assay_287530); parameters: ligand concentration 0.03 nM, non-specific ligand with concentration 1 uM (Arg8)-Vasopressin, incubation time 2 h, incubation temperature 25 C
# Vasopressin V1a receptor, sequence (P37288 whole entry): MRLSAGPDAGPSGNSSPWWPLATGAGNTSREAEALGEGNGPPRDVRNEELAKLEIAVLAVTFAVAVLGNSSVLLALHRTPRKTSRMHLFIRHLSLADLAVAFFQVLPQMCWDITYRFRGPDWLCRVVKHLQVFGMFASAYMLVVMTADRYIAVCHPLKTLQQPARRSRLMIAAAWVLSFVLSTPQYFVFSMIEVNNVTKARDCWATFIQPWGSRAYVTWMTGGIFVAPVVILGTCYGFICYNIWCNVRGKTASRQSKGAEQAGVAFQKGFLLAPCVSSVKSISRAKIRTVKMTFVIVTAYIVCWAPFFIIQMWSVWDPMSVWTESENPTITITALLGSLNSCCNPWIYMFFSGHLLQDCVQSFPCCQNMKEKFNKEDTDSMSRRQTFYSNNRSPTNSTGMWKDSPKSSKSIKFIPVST
# [19] = target: Cathepsin G (Homo sapiens) (UniProt P08311); experiment: Inhibition of Peptidase, CTSG (Cathepsin G) at 10 µM in the Eurofins-Panlabs enzyme assay (Eurofins_assay_112510); parameters: substrate with concentration; settings: Compound concentration 10.0 uM
# [20] = target: Calcium/calmodulin-dependent protein kinase type II subunit alpha (Homo sapiens) (UniProt Q9UQM7); experiment: Inhibition of CaMKIIalpha(h) at 10.0 µM in the Eurofins Kinase panel; settings: Compound concentration 10.0 uM
# [21] = target: Dual specificity protein kinase CLK4 (Homo sapiens) (UniProt Q9HAZ1); experiment: Inhibition of CLK4(h) at 10.0 µM in the Eurofins Kinase panel; settings: Compound concentration 10.0 uM
# [22] = target: Vascular endothelial growth factor receptor 1 (Homo sapiens) (UniProt P17948); experiment: Inhibition of Flt1(h) at 10.0 µM in the Eurofins Kinase panel; settings: Compound concentration 10.0 uM
# [23] = target: Serine/threonine-protein kinase Nek4 (Homo sapiens) (UniProt P51957); experiment: Inhibition of NEK4(h) at 10.0 µM in the Eurofins Kinase panel; settings: Compound concentration 10.0 uM
# [24] = target: RAC-alpha serine/threonine-protein kinase (Homo sapiens) (UniProt P31749); experiment: Inhibition of PKBalpha(h) at 10.0 µM in the Eurofins Kinase panel; settings: Compound concentration 10.0 uM
# RAC-alpha serine/threonine-protein kinase (Homo sapiens), sequence (P31749 whole entry): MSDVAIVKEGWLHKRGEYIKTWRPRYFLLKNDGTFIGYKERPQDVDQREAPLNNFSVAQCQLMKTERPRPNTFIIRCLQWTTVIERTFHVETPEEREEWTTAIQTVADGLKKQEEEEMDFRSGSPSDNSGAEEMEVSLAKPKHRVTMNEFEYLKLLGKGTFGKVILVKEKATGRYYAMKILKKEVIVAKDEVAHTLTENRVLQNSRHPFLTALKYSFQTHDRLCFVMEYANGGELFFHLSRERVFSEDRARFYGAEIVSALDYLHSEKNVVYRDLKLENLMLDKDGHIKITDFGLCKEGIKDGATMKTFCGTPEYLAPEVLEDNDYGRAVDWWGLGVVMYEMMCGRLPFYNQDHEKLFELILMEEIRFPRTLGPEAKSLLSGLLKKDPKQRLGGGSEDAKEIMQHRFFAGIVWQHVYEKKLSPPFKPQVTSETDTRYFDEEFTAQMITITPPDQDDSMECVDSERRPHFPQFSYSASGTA
# [25] = target: Serine/threonine-protein kinase tousled-like 1 (Homo sapiens) (UniProt Q9UKI8); experiment: Inhibition of TLK1(h) at 10.0 µM in the Eurofins Kinase panel; settings: Compound concentration 10.0 uM
# [26] = target: Cannabinoid receptor 1 (Homo sapiens) (UniProt P21554); settings: Compound concentration 10.0 uM
# [27] = target: Purinergic P2Y (Rattus norvegicus) (UniProt O35811+Q9EPX4+P49651+Q63371+P41232+O35881+Q6GUG4); settings: Compound concentration 10.0 uM
# [28] = target: Mitogen-activated protein kinase kinase kinase kinase 2 (Homo sapiens) (UniProt Q12851); experiment: Inhibition of GCK (h) at 10.0 µM in the Eurofins Kinase panel; settings: Compound concentration 10.0 uM
structure (smiles),measurement,setting,value
O=c1n(Cc2cncn2-c2cccc(Cl)c2)nc(-c2ccc(Cl)cc2)n1C[C@H](O)C(F)(F)F,inhibition,[1],-7.81%
same,inhibition,[2],-3.84%
same,inhibition,[3],10.1%
same,inhibition,[4],20%
same,inhibition,[5],-3.13%
same,inhibition,[6],-2%
same,inhibition,[7],12%
C[C@H](O)c1nc(Cn2nc(-c3ccc(Cl)cc3)n(C[C@H](O)C(F)(F)F)c2=O)nn1-c1cccc(Cl)c1 [PECAVAPTAN],inhibition,[8],-2%
same,inhibition,[9],-4%
same,inhibition,Rattus norvegicus [10],14%
same,inhibition,Rattus norvegicus [11],21%
same,inhibition,[12],11%
same,inhibition,[13],9%
same,inhibition,[14],3%
same,inhibition,[15],0%
same,inhibition,Homo sapiens [16],-4%
same,inhibition,[17],4%
same,inhibition,Homo sapiens [18],-1%
same,IC50,Vasopressin V1a receptor,6.74 nM
same,Ki,Vasopressin V1a receptor,1.33 nM
same,inhibition,[19],0%
same,inhibition,[20],-6.92%
same,inhibition,[21],1.42%
same,inhibition,[22],-9.22%
same,inhibition,[23],13.1%
same,inhibition,[24],-3.88%
same,inhibition,[25],-3.06%
same,inhibition,[26],34%
same,inhibition,[27],0%
same,inhibition,[28],-4.72%
